Reference: US20030118671A1, “Formulation containing peanut leaf extract and its preparation” (priority 1999, published 2003)

Assays:
mice = conditions: mouse, in vivo; cited from earlier work
[1] = system: spleen, thymus and lymph node; experiment: Immune organs weight assay; assay type: in vivo, Kunming mice; conditions: mice, day 8; leaf extract 84.8 g/1 kg orally 7 days; cortisone acetate 50 mg/1 kg i.m. 3 times
Text: Organ weights of Spleen, thymus and lymph node in animals are increased by most of the immunopotentiating agents, but decreased by immunosuppressive agents. So the assay was used to investigate the effect of the preparation containing leaf extract of A. hypogaea on immunological function.
Animals: male and female (1:1) Kunming mice (provided by Shanghai Bioproduct Institute) were used.
Drugs: leaf extract of A. hypogaea, provided by Shanghai Zhoaxiang Chinese Medicinal Herbs Factory. Injection of cortisone acetate was provided by Shanghai Ninth Pharmaceutical Factory.
Methods: The animals were divided into groups at random after weighting. Mice were administered with 84.8 g/1 kg body weight diluted leaf extract of A. hypogaea (in terms of crude drugs) orally once per day for 7 days. 50 mg/1 kg cortisone acetate was injected intramuscularly (totally 3 times), on 2, 4, 6 days after the administration of leaf extract of A. hypogaea. 0.2 ml/10 g body weight physiological saline was administrated orally in control group, once per day for 7 days. Animals were sacrificed on the day 8 by bleeding from orbit vein. Then, spleen, thymus and lymph node (jaw, axillary fossa, groin) were taken out and weighed immediately. Each organic weight was shown as mg/10 g body weight.

mononuclear macrophage = experiment: Carbon particulate clearance test; assay type: in vivo; conditions: mice, day 8 after seven days of drug; the values are: carbon clearance K value
Text: This method was used to observe the phagocytosis of mononuclear macrophage. Immunopotentiators can activate the macrophage of mice, and enhance the phagocytosis thereof. In contrast, immunosuppressants suppress these effects. Therefore, K values were increased or decreased by these two kinds of drugs, respectively
Animals and drugs were same to those used above.
Methods: After oral administration of drugs or physiological saline, or intramuscular injection of […], for seven days, 0.05 mL/10 g body weight injected through tail vein in mice on day 8. 20 μL blood was acquired from orbit vein, in 1 and 5 minutes after injection, added to 0.1%Na2CO3 respectively, and shaken up. Optical density was detected with Model-72 spectrophotometer at λ=680 nm. K values were calculated. The results were statistically analyzed and p values were assessed by t-test.

[2] = system: peripheral blood of mouse; experiment: Peripheral blood rosette test (RFC method); assay type: in vivo, mice; conditions: 4 days after SRBC immunisation
Protocol: (§1) Peripheral blood of mouse, spleen cells rosette formation method. This method was used to observe the effect of drugs on antigen combining cell during the earlier stage of immune, which was used to screen immunopotentiator or immunosuppressant. 7.5 mg cyclophosphamide (manufactured by Shanghai Twelve Pharmaceutical Factory) per 1 kg of body weight of male mouse was injected intraperitoneally. According the recommended method for screening immune drugs disclosed by a person, each group was administrated and immured by injection sheep red blood cell (SRBC). After 4 days, peripheral blood and spleen cell suspension (approximately 9 million spleen cells per milliliter) were obtained from mice, and 1% SRBC and 0.1 mL inactivated calf blood serum were added thereto, intermixed and centrifuged under low-speed for 10 minutes. Then 1% toluidine blue was added in minor amount along the wall of the test tubes. Cell pellet was slightly dispersed by pipette. Well-mixed cell suspension was dropped to blood cell counting chamber and the number of rosette in 1 mm^3 was counted under a microscope. Once lymphocyte was surrounded by more than five SRBC, it was regarded as a rosette.

spleen cells = experiment: Spleen cell rosette test (RFC method); assay type: in vivo, mice; conditions: 4 days after SRBC immunisation
Protocol: as §1

In the case of `C=CC(C)(O)CCC=C(C)C` (stereo not shown) [Linalool], the “sedative-hypnotic effect (literature)” value (mice) is given as “positive effects on the sedative-hypnotic”.

`CC(=O)OCC(=O)[C@@]1(O)CC[C@H]2[C@@H]3CCC4=CC(=O)CC[C@]4(C)[C@H]3C(=O)C[C@@]21C` [cortisone, cortisone acetate] showed a lymph node weight [1] of 0.12 ± 0.05 mg/10 g body weight, a thymus weight [1] of 3.77 ± 0.83 mg/10 g body weight and a weight of spleen [1] of 2.58 ± 1.00 mg/10 g body weight. For the same compound, the carbon clearance K value (mononuclear macrophage) was 0.00587 ± 0.0033.

Compound `O=P1(N(CCCl)CCCl)NCCCO1` (stereo not shown) [cyclophosphamide] has a rosette percent [2] of 15.93 ± 3.35 and a rosette percent (spleen cells) of 20.50 ± 4.29.
